Laboratory results taken from US20080227809A1, “Arylalkylamine Vanadium (V) Salts for the Treatment and/or Prevention of Diabetes Mellitus” (GENMEDICA THERAPEUTICS SL, priority 2004, published 2008).
pEC50: −log10 of the molar value. “Also recorded” adds a separate entry of the source.

What was measured:
[1] = system: streptozotocin-induced diabetic rats with undetectable circulating insulin
Protocol: Male Wistar rats weighting 180-220 g were purchased from Harlan (Interfauna Ibèrica S.A., Spain). Diabetes was induced by a single intraperitoneal injection of a freshly prepared solution of streptozotocin (in some studies the dose was 45 mg/kg body weight and in some others 100 mg/kg body weight dissolved in 50 mM citrate buffer, pH 4.5). Only diabetic animals with glycemia above 300 mg/dl were used. The animals were housed in animal quarters at 22° C. with a 12 h light/12 h dark cycle and were fed ad libitum. All procedures used were approved by the animal ethical committee of the University of Barcelona, Spain.
Osmotic minipumps delivering B6V10 (2.5 μmol/kg body wt/day) or decavanadate (2.5 μmol/kg body wt/day) were implanted subcutaneously in diabetic rats anaesthetised by ketamine hydrochloride (95 mg/kg) and xylasine (10 mg/kg). […] Glycemia was measured on arterio-venous blood collected from the tail vessels at 09:00 am for two weeks, before the administration of vanadate. Insulin concentrations were determined before and after treatment. In another set of experiments, B6V10 was orally administered at a single dose of 5 μmol/kg/day during the first week and 10 μmol/kg/day during 2 additional weeks by gastric gavage. A control group received the corresponding decavanadate salt in the absence of benzylamine. At the end of the treatment, animals were sacrificed and the liver, fat pad, heart and lung were kept at −80° C. and the plasma at −20° C. until their use for in vitro analysis.
In glucose tolerance tests and in chronic treatments, circulating glucose concentrations were determined by a rapid glucose analyser (Accutrend® Sensor Comfort, Roche, Basel. Switzerland). Plasma insulin (IRI) concentration was determined by ELISA method using a kit obtained from Crystal Chem. Inc. (Downers Grove, Ill.).
To this end, rats were made diabetic by the injection of a large dose of streptozotocin (100 mg/kg) that eliminates β-pancreatic insulin content.

[2] = system: high-fat fed mice; test: glucose tolerance and plasma insulin in high-fat fed mice; format: in vivo, mouse
Protocol: Insulin and glucose responses during the glucose tolerance test were calculated as the incremental plasma values integrated over a period of 120 min after injection of glucose. Areas under curves of insulin and glucose responses were calculated using the Graph Prism program (SOURCE?). Data distribution was analyzed by the Kolmogorov-Smirnov test. Data were presented as mean ±SEM and unpaired Student's t test was used to compare two groups. When experimental series involved more than two groups, statistical analysis was done by one-way or two-way ANOVA and further post-hoc (Dunnett, Tukey or Bonferroni) t tests. Statistical analysis was performed with SPSS 11.0 or GraphPad Prism 4 programs.

[3] = system: streptozotocin-induced diabetic rats; test: chronic subcutaneous (osmotic minipump) treatment, glycemia of streptozotocin (45 mg/kg) diabetic rats; format: in vivo, rat; settings: for effect on glycemia: 2.5 μmol/kg/day subcutaneous by osmotic minipumps, about two weeks
Protocol: Insulin concentrations were determined before and after treatment.
The effect of chronic administration of hexaquis(benzylammonium) decavanadate on glycemia from diabetic rats was determined. Thus, diabetes was induced in rats by intravenous administration of streptozotocin, which destroys the β-pancreatic cells that produce insulin.
Chronic in vivo efficacy of B6V10 was evaluated in streptozotocin-induced diabetic rats and in db/db mice. Streptozotocin-induced (45 mg/kg) diabetic rats were subcutaneously treated with hexaquis(benzylammonium) decavanadate (2.5 μmol/kg) (B6V10, solid squares, FIG. 8A) or with decavanadate (2.5 μmol/kg) (V10, open circles, FIG. 8A) delivered subcutaneously by osmotic minipumps implanted in the dorsal region. Diabetic rats were also sham-operated (untreated, solid diamonds, FIG. 8A). […] These experiments were repeated using an oral administration protocol. Streptozotocin-induced (45 mg/kg) diabetic rats were orally treated with hexaquis(benzylammonium) decavanadate (5 μmol/kg from day 0 to day 7 and 10 μmol/kg/day from day 7 to day 17) (B6V10, solid squares, FIG. 8B) or received decavanadate (10 μmol/kg) (V10, open circles, FIG. 8B). Nondiabetic rats were also untreated (solid triangles, FIG. 8B).

[4] = system: isolated rat adipocytes; test: glucose transport (2-deoxyglucose uptake) in isolated rat adipocytes; format: cell-based; settings: for stimulatory effect on glucose transport in the presence of semicarbazide: 1 mM semicarbazide (SSAO inhibitor); for stimulation of glucose transport: 45 min incubation
Protocol: In order to determine whether salts formed by vanadate and benzylamine could produce an insulin mimetic effect, the effect of increasing concentrations of hexaquis(benzylammonium) decavanadate on glucose transport activity in isolated rat adipocytes was tested. Hexaquis(benzylammonium) decavanadate induced the stimulation of glucose transport which was perceptible from concentrations of 0.5 μM, with a maximal effect observed 2.5 μM and the semimaximal effect above 1 μM. […] The maximum effect provoked by incubation with hexaquis(benzylammonium) decavanadate was greater than that produced by the presence of benzylamine and vanadate in combination (FIG. 1). […] In similar assays, the activity of hexaquis(benzylammonium) decavanadate, pentaquis(benzylammonium) decavanadate and tetraquis(benzylammonium) decavanadate on glucose transport activity in isolated rat adipocytes were analyzed.
To determine the possible insulin mimetic effect of certain vanadium arylalkylamines, the capacity of these compounds to enhance glucose transport in isolated rat adipocytes was tested. Adipose cells from Wistar rats were incubated for 45 minutes in basal conditions (Basal) or in the presence of 100 nM insulin (Ins), and different concentrations of. hexaquis(benzylammonium) decavanadate (B6V10) in the absence or in the presence of 1 mM semicarbazide (SCZ). Subsequently, 2-DG transport was measured over a 5 min. interval.
The effects of the three tested compounds (B6V10, B5V10 and B4V10) were compared. Adipose cells from Wistar rats were incubated for 45 minutes in basal conditions (Basal) or in the presence of 100 nM insulin (Ins), and different concentrations of. decavanadate (V10), hexaquis(benzylammonium) decavanadate (B6V10), pentaquis(benzylammonium) decavanadate (B5V10) or tetraquis(benzylammonium) decavanadate (B4V10) in the absence or in the presence of 1 mM semicarbazide (SCZ). 2-DG transport was measured over 5 min. intervals. […] The stimulation of all three compounds on glucose transport was blocked in the presence of semicarbazide.
In additional experiments, compounds shown in FIG. 6A (named 2-(4-fluoro-phenyl)-ethylamine (compound A), 3-phenyl-propylamine (compound B), 4-fluoro-benzylamine (compound C) and 4-phenyl-butylamine (compound D)) were assessed using the experimental methods set forth above for the capacity to stimulate 2-DG uptake in isolated rat adipocytes. Adipose cells from Wistar rats were incubated for 45 minutes in basal conditions (Basal) or in the presence of 100 nM insulin (Ins), and different concentrations of vanadium salts of 2-(4-fluoro-phenyl)-ethylamine (compound A), 3-phenyl-propylamine (compound B), 4-fluoro-benzylamine (compound C) and 4-phenyl-butylamine (compound D). 2-DG transport was measured over 5 min.
The effects of incubation with semicarbazide or phosphatidylinositol 3-kinase inhibitors were also investigated. Adipose cells were incubated with B6V10 (25 μM, 45 min) in the absence or presence of wortmannin (2 μM, 45 min), LY294002 (10 μM, 45 min) or semicarbazide (1 mM, 45 min) and thereafter 2-deoxyglucose uptake was determined during 5 min. Activation of protein kinase B phosphorylation induced by B6V10 was blocked by semicarbazide and it was not observed by decavanadate. In addition, phosphatidylinositol 3-kinase inhibitors wortmannin and LY294002 blocked B6V10-induced glucose transport (FIG. 7E).

[5] = listed as hexaquis(benzylammonium) decavanadate

Substance: hexaquis(benzylammonium) decavanadate [Example B6V10]
- plasma glucose ([1]; after 28 days, 2.5 μmol/kg): reduced
- plasma insulin ([1]; after 28 days, 2.5 μmol/kg): without any observable change
- body weight or organ weights ([1]; rat, in vivo): did not affect
- plasma insulin levels ([2]; acute administration, mice made glucose intolerant by a high fat diet): improved plasma insulin levels; also recorded: ameliorated the pattern of plasma insulin levels
- glucose tolerance ([2]; high-fat fed mice): amelioration of glucose tolerance
- time of treatment after which reduction of hyperglycemia was detected ([3]; 2.5 μmol/kg/day subcutaneous): four
- effect on glycemia [3]: significant correction of hyperglycemia; also recorded: significant lowering in blood glucose levels; also recorded: ameliorated hyperglycemia
- effect on glycemia [3, 5]: rapid reduction of the hyperglycemia
- day of treatment from which glycemia differed significantly from the untreated group ([3]; Bonferroni post-tests, P<0.01, FIG. 8A): 8
- stimulation of glucose transport compared with combination of 100 μM benzylamine and 100 μM vanadate ([4]; 25 μM B6V10, data not shown): greater stimulation
- stimulatory effect on glucose transport in the presence of semicarbazide [4]: completely blocked
- stimulatory effect on glucose transport in the presence of semicarbazide [4, 5]: completely blocked; also recorded: inhibited
- maximum effect on glucose transport compared with benzylamine and vanadate in combination ([4]; combination 100 μM sodium vanadate and 100 μM benzylamine (FIG. 1)): greater
- maximal effect on glucose transport relative to the maximal stimulation caused by insulin ([4]; insulin 100 nM): 85%
- concentration at which maximal effect on glucose transport was observed ([4]; isolated rat adipocytes): 2.5 µM
- concentration from which stimulation of glucose transport was perceptible ([4]; isolated rat adipocytes): 0.5 µM
- stimulation of glucose transport ([4]; isolated rat adipocytes): stimulated glucose transport in rat adipocytes in a concentration-dependent manner
- stimulation of glucose transport ([4]; isolated rat adipocytes, listed as hexaquis(benzylammonium) decavanadate): pronounced stimulation
- pEC50 ([4]; isolated rat adipocytes, read-out: semimaximal effect on glucose transport): < 6.00
